# Measured values as given in PMC7997578, “Design, Synthesis, Dynamic Docking, Biochemical Characterization, and in Vivo Pharmacokinetics Studies of Novel Topoisomerase II Poisons with Promising Antiproliferative Activity” (Journal of Medicinal Chemistry, 2020).
# Read-outs that look alike come from different tables or passages of the source.
# Experiments:
# human topoIIα = target: T1, human topoIIα (Homo sapiens, UniProt P11388); experiment: topoII decatenation assay (Inspiralis); assay type: biochemical; conditions: human topoIIα decatenation assay; mean ± SD of two independent experiments; read-out: IC50
# T1 construct: purchased Inspiralis
# Protocol: We measured the inhibitor activity of our new compounds against human topoIIα, using a topoII decatenation assay (Table 1).
# The activity of topoIIα was measured using a decatenation assay (Inspiralis) following the manufacturer’s instructions. Compounds were dissolved in DMSO and used at a concentration ranging from 200 to 1 μM. Final DMSO concentration in the assay was ≤1%. Reaction mixtures were incubated for 30 min at 37 °C and terminated with STEB buffer (40% (w/v) sucrose, 100 mM Tris-HCl, pH 8, 1 mM EDTA, 0.5 mg/mL bromophenol blue). Reaction products were resolved by electrophoresis in 1% agarose gels containing SYBR Safe DNA stain (Invitrogen), scanned, and quantified using the ChemiDoc system (BioRad). IC50 values were obtained with GraphPad Prism software (version 5.03) using the band intensities of the dose–response gels. Values are reported as the mean ± SD of two independent experiments.
# DU145 cells [1] = system: DU145 cells; parameters: method as in PMID 29077404; conditions: etoposide and merbarone measured in ref 39, read-out: DU145 antiproliferative activity IC50; cited from earlier work
# HeLa cells [2] = system: HeLa cells; parameters: method as in PMID 29077404; conditions: etoposide and merbarone measured in ref 39, read-out: HeLa antiproliferative activity IC50; cited from earlier work
# human topoII = system: human topoII; parameters: method as in PMID 29077404; conditions: earlier values of the same authors; read-out: IC50 topoII blocker; cited from earlier work
# A549 cells [3] = system: A549 cells; parameters: method as in PMID 29077404; conditions: etoposide and merbarone measured in ref 39, read-out: A549 antiproliferative activity IC50; cited from earlier work
# DU145 cells [4] = experiment: cell viability MTT assay, DU145; assay type: cell-based, human; conditions: Homo sapiens, DU-145, DU145 prostate cancer cells, mean ± SD of two experiments, read-out: DU145 antiproliferative activity IC50
# Protocol: (§1) The antiproliferative activity of all compounds was evaluated in (i) DU145, an androgen-independent prostate cancer cell line; (ii) HeLa, a cervical cancer cell line; and (iii) A549, a lung adenocarcinoma cell line (Table 1). […] Undoubtedly, this preliminary cytotoxicity data will need further characterization, also in relation to the in vitro activity of these compounds.
# (§2) Human cancer cell lines A549 (lung adenocarcinoma, ATCC CCL-185), DU-145 (androgen-independent prostate cancer, ATCC HTB-81), and HeLa (cervical carcinoma, ATCC CCL-2) were obtained from ATCC. Cells were routinely grown in minimal essential medium containing Eagle’s salts and L-glutamine supplemented with 10% heat-inactivated FBS in a humidified atmosphere of 5% CO2 at 37 °C. To assess the antiproliferative activity of the compounds, cells were seeded at a density of 2500 cells/well (HeLa) or 5000 cells/well (A549, DU-145) in 96-well plates, and cell viability was measured using the MTT assay as described previously.[39] Values are reported as the mean ± SD of two independent experiments.
# HeLa cells [5] = experiment: cell viability MTT assay, HeLa; assay type: cell-based, human; conditions: Homo sapiens, HeLa, HeLa cervical cancer cells, mean ± SD of two experiments, read-out: HeLa antiproliferative activity IC50
# Protocol: as §1, §2
# A549 cells [6] = experiment: cell viability MTT assay, A549; assay type: cell-based, human; conditions: Homo sapiens, A549, A549 lung adenocarcinoma cells, mean ± SD of two experiments, read-out: A549 antiproliferative activity IC50
# Protocol: as §1, §2
# [7] = aqueous kinetic solubility; assay type: physicochemical; conditions: PBS, pH 7.4, PBS pH 7.4, target 250 µM, 2.5% DMSO, 25°C
# Protocol: 1. In vitro m etabolic stabili ty
# In vitro microsomial stability. 10mM DMSO stock solution of test compound was pre-incubated at 37 °C for 15min with mouse liver microsomes added 0.1M Tris-HCl buffer (pH 7.4). The final concentration was 4.6µM. After pre -incubation, the co-factors (NADPH, G6P, G6PDH and MgCl2 pre-dissolved in 0.1M Tris-HCl) were added to the incubation mixture and the incubation was continued at 37 °C for 1h. At each time point (0, 5, 15, 30, 60min), 30µL of incubation mixture was diluted with 200µL cold CH 3CN spiked with 200n M of internal standard, followed by centrifugation at 3500g for 15min. The supernatant was further diluted with H2O (1:1) for analysis. The concentration of test compound was quantified by LC/MS-MS on a Waters ACQUITY UPLC/M S TQD system consisting of a TQD (Triple Quadrupole Detector) Mass Spectrometer equipped with an Electrospray Ionization interface. The analyses were run on an ACQUITY UPLC BEH C18 (50x2.1mmID, particle size 1.7µm) with a VanGuard BEH C18 pre -column (5x2.1mmID, particle size 1.7µm) at 40°C, using 0.1% HCOOH in H 2O (A) and 0.1% HCOOH in CH 3CN (B) as mobile phase. Electrospray ionization (ESI) was app lied in positive mode . The percentage of test compound remaining at each time point relative to t=0 was calculated. The half -lives (t½) were determined by an one-phase decay equation using a non -linear regression of compound concentration versus time.
# In vitro Plasma Stability. 10mM DMSO stock solution of test compound was diluted 50 -fold with DMSO-H2O (1:1) and incubated at 37 °C for 2 h with mouse plasma added 5% DMSO (pre-heated at 37 °C for 10 min). The final concentration was 2µM. At each time point (0, 5, 15, 30, 60, 120min), 50 µL of incubation mixture was diluted with 200µL cold CH3CN spiked with 200nM of internal standard, followed by centrifugation at 3500g for 20min. The supernatant was further diluted with H2O (1:1) for analysis. The concentration of test compound was quantified by LC/MS-MS on a Waters ACQUITY UPLC/MS TQD system consisting of a TQD (Triple Quadrupole Detector) Mass Spectrometer equipped with an Electrospray Ionization interface. The analyses were run on an ACQUITY UPLC BEH C18 (50x2.1mmID, particle size 1.7µm) with a VanGuard BEH C18 pre - column (5x2.1mmID, particle size 1.7µm) at 40°C, using 0.1% HCOOH in H2O (A) and 0.1% HCOOH in CH3CN (B) as mobile phase. Electrospray ionization (ESI) was applied in positive mode.
# The response factors, calculated on the basis of the internal standard peak area, were plotted over time. When possible, response vs. time profiles were fitted with Prism (GraphPad Software, Inc., USA) to estimate compounds half-life in plasma.
# 2. Aqueous ki netic solu bili ty
# The aqueous kinetic solubility was determined from a 10mM DMSO stock solution of test compound in Phosphate Buffered Saline (PBS) at pH 7.4. The study was performed by incubation of an aliquot of 10mM DMSO stock solution in PBS (pH 7.4) at a target concentration of 250µM resulting in a final concentration of 2.5% DMSO. The incubation was carried out under shaking at 25°C for 24h followed by centrifugation at 21.100g for 30min. The supernatant was analyzed by UPLC/MS for the quantification of dissolved compound by UV at a specific wavelength (215nm).
# The analyses were performed on a Waters ACQUITY UPLC/MS SQD system consisting of a SQD (Single Quadrupole Detector) Mass Spectrometer equipped with Electrospray Ionization interface.
# The analyses were run on an ACQUITY UPLC BEH C18 column (50x2.1mmID, particle size 1.7µm) with a VanGuard BEH C18 pre-column (5x2.1mmID, particle size 1.7µm), using 10mM NH4OAc in H2O at pH 5 adjusted with AcOH (A) and 10mM NH4OAc in MeCN-H2O (95:5) at pH 5 (B) as […]
# [8] = target: T2, topoII/DNA cleavage complex (Homo sapiens, UniProt P11388); experiment: topoisomerase II cleavage complex assay; assay type: biochemical; conditions: 200 μM compound, 1 U topoII, plasmid DNA
# T2 construct: purchased Inspiralis
# Protocol: Figure 2 Poison activity of the hybrid compounds. Agarose gel electrophoresis of plasmid DNA incubated in the absence (no enzyme) or presence of 1 U of topoII containing either 1% DMSO as control vehicle (no enzyme and topoII lanes) or 200 μM compound. Labels are shown above each lane. Numbers at the bottom correspond to the normalized intensity of the linear form (FIII). Plasmid forms are indicated by the arrow-points on the right: supercoiled (FI), nicked (FII), and linear (FIII).
# Poison activity of the compounds was evaluated using a cleavage complex assay (Inspiralis) as described previously.[60] Compounds were tested at a fixed concentration of 200 μM in the presence of 1 U of topoisomerase II and 500 ng of […] plasmid at 37 °C for 6 min. Final DMSO concentration in the assay was 1%. Reaction products were subjected to electrophoresis in a 1% agarose gel, stained with SYBR Safe DNA stain, and DNA bands were visualized and quantified as described above.
# T1 sequence (P11388 whole entry): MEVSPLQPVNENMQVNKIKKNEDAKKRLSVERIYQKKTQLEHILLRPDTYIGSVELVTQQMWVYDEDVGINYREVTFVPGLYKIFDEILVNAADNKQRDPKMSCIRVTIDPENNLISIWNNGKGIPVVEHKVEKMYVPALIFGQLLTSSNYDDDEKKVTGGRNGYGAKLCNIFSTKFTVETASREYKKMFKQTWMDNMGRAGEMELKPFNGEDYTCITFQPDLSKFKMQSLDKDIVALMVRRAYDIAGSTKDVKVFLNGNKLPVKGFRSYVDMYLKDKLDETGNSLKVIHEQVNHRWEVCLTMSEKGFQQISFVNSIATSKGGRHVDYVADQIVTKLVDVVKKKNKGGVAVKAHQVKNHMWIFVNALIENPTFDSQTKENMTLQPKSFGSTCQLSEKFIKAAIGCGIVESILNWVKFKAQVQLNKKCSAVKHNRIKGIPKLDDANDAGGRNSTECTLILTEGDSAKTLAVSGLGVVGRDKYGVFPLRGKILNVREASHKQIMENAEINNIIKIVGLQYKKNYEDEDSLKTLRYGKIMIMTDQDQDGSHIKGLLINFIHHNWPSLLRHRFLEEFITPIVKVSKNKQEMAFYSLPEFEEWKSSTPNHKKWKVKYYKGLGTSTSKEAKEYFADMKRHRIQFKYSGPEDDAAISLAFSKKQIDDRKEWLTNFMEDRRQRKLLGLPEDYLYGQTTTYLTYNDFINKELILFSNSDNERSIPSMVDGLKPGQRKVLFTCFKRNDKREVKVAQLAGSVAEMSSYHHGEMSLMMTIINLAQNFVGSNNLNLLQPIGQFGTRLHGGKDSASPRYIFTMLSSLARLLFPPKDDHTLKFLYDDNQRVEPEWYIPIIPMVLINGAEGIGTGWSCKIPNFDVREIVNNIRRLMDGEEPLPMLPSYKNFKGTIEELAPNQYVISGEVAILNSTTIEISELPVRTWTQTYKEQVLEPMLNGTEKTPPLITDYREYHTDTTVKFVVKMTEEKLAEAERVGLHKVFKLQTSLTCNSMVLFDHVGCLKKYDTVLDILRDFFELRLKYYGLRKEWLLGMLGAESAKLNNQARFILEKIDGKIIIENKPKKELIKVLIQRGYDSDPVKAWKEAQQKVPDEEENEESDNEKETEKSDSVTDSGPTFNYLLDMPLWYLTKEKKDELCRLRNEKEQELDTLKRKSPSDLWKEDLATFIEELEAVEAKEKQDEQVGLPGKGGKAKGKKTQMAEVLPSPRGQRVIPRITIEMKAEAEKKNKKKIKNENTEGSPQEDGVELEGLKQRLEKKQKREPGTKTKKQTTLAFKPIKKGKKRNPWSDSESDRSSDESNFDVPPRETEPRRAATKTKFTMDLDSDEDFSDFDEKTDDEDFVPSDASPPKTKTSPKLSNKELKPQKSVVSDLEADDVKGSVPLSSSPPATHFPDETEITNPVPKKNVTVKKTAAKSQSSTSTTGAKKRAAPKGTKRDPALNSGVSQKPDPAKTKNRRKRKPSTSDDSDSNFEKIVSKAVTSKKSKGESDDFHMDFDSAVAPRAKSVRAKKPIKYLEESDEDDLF
# T2 sequence (P11388 whole entry, one chain of several): as the sequence (P11388 whole entry) above
compound,measurement,setting,value
"O=C1NC(=S)NC(=O)C1C(=O)Nc1ccccc1 [merbarone, 6-hydroxy-4-oxo-N-phenyl-2-thioxo-1H-pyrimidine-5-carboxamide]",IC50,human topoIIα,26 ± 4.7 µM
same,IC50,DU145 cells [1],18.9 ± 2 µM
same,IC50,HeLa cells [2],62.3 ± 6.4 µM
same,IC50,human topoII,120 ± 12 µM
COc1cc([C@@H]2c3cc4c(cc3[C@@H](O[C@@H]3O[C@@H]5CO[C@@H](C)O[C@H]5[C@H](O)[C@H]3O)[C@H]3COC(=O)[C@H]23)OCO4)cc(OC)c1O [etoposide],IC50,DU145 cells [1],1 ± 0.8 µM
same,IC50,HeLa cells [2],2.4 ± 0.9 µM
same,IC50,A549 cells [3],1.3 ± 0.1 µM
"O=C(Nc1cccc(OC(F)F)c1)c1c(O)n(-c2ccccc2)c(=S)n(-c2ccccc2)c1=O [3g, N-(3-(Difluoromethoxy)phenyl)-6-hydroxy-4-oxo-1,3-diphenyl-2-thioxo-1,2,3,4-tetrahydropyrimidine-5-carboxamide]",IC50,human topoIIα,10.2 ± 1.9 µM
same,IC50,DU145 cells [4],6.5 ± 0.9 µM
same,IC50,HeLa cells [5],6.4 ± 0.5 µM
same,IC50,A549 cells [6],4.8 ± 0.4 µM
same,solubility kinetic at 24 h,[7],> 200 µM
same,mode of action in cleavage complex formation assay,[8],confirmed to be poisons
"O=C(Nc1cccc(C(F)F)c1)c1c(O)n(-c2ccccc2)c(=S)n(-c2ccccc2)c1=O [3i, N-(3-(Difluoromethyl)phenyl)-6-hydroxy-4-oxo-1,3-diphenyl-2-thioxo-1,2,3,4-tetrahydropyrimidine-5-carboxamide]",IC50,human topoIIα,11.4 ± 2.4 µM
same,IC50,DU145 cells [4],7.8 ± 0.2 µM
same,IC50,HeLa cells [5],4.9 ± 1.4 µM
same,IC50,A549 cells [6],4.4 ± 0.2 µM
same,solubility kinetic at 24 h,[7],> 200 µM
same,mode of action in cleavage complex formation assay,[8],confirmed to be poisons
COc1cccc(NC(=O)c2c(O)n(-c3ccccc3)c(=S)n(-c3ccccc3)c2=O)c1 [ARN16267],IC50,human topoIIα,16.1 ± 2.4 µM
same,IC50,DU145 cells [4],7.6 ± 0.8 µM
same,IC50,HeLa cells [5],5.5 ± 1.3 µM
same,IC50,A549 cells [6],4.7 ± 0.3 µM
same,solubility kinetic at 24 h,[7],236 µM
same,IC50,human topoII,30 ± 6 µM
